In brackets after ≈: the same amount, converted by molar mass. Where two headings read alike, the source gives them in different places.
Columns and labels:
B. subtilis (ATCC 6633) = test: Microscopy of membrane morphology at sub-lethal concentration, FM 4-64 stain; format: cell-based, Bacillus subtilis; conditions: sub-lethal concentration 0.25 μg/mL, 3 h at 37 °C
Procedure: B. subtilis (ATCC 6633) was used for all microscopy experiments. For time-course studies at lethal concentration, culture containing 1 μg/mL FM 4-64 was combined with medium containing himastatin before being immediately added to a 1% agarose pad containing 0.5 μg/mL sytox green (Invitrogen). One section of the agarose pad was then imaged every 5 minutes to monitor cell death. For studies of morphological changes in sub-lethal concentrations, culture was incubated with 0.25 μg/mL (−) or (+)-himastatin for 3 h at 37 C, before being combined with FM 4-64 and added to an agarose pad containing sytox green. Images were collected on a Zeiss AxioPlan2 upright microscope using phase-contrast and equipped with a Hamamatsu Orca-ER cooled CCD camera using standard filter sets for GFP (to visualize SYTOX green; excitation 470/40 nm and emission 525/50 nm), TxRED (to visualize FM 4-64; excitation 565/40 and emission 620/60 nm), and DIC (for phase-contrast). Additional imaged were collected with an RPI Spinning Disk Confocal microscope equipped with a Hamamatsu Orca-ER cooled CCD camera using standard filter sets for GFP (488 nm laser, emission 525/50 nm), RFP (561 nm laser, emission 605/70 nm), and brightfield.
B. subtilis (ATCC 6633) in Mueller Hinton broth (NMB) was used for all microscopy experiments. For time-course studies with natural himastatin at lethal concentration, a bacterial culture matching the optical density of McFarland standard 0.5 (1×10^8 cfu/mL) was supplemented with 1 μg/mL FM 4-64 before being combined with medium containing (−)- or (+)-himastatin (1) (2 μg/mL) immediately before imaging on a 1% agarose pad containing 0.5 μg/mL SYTOX Green (Invitrogen). One section of the agarose pad was then imaged every 5 min to monitor cell death. For studies of morphological changes in bacteria treated with sub-lethal concentrations, culture was incubated with 0.25 μg/mL (−)- or (+)-himastatin (1) for 3 h at 37° C., before being supplemented with 1 μg/mL FM 4-64 and added immediately to an agarose pad. […]

[1] = system: Bacillus subtilis (ATCC 6633); format: cell-based
Procedure: (§1) Bacillus subtilis subsp. spizizenii (ATCC 6633) and Streptomyces himastatinicus (ATCC 53653) were obtained from the American Type Culture Collection (ATCC). Methicillin-resistant and methicillin-susceptible Staphylococcus aureus (Newman), and vancomycin-resistant (V583) and vancomycin-susceptible (T7) Enterococcus faecalis were obtained from the lab of Dr. Roby P. Bhattacharyya (Massachusetts General Hospital).^6 B. subtilis was grown in brain-heart infusion (BHI) medium at 37° C., S. himastatinicus was grown in tryptone-yeast extract broth (ISP medium 2) at 28° C., E. faecalis was grown in Todd-Hewitt broth, and all other organisms were grown in lysogeny broth (LB) medium at 37° C.
(§2) Minimum inhibitory concentration (MIC) was determined using the broth microdilution method. 20-fold stocks of compound in DMSO were diluted 10-fold in MHB medium and 100 μL of each were added to the first well of a 96-well plate. 50 μL of the first well was then serially diluted through 50 μL MHB medium in wells 2-11. To prepare the bacterial culture, an overnight culture was diluted in MHB until the turbidity matched that of McFarland standard 0.5. Then, the culture was diluted 1:100 and added to wells 1-11, resulting in 2-fold dilutions of antibiotic beginning at 64 μg/mL and a final inoculum of 5×10^5 cfu/mL. 100 μL of MHB medium was added to well 12 as a sterility control, and a row containing no antibiotic was used as a growth control. The plate was incubated at the organism's respective growth temperature overnight (B. subtilis) or 72 h (S. himastatinicus) and the MIC was determined using OD600.
(§3) Minimum inhibitory concentration (MIC) was determined using the broth microdilution method.^7 20-fold (1.28 mg/mL) stocks of compound in dimethylsulfoxide, stored as frozen (−80° C.) 30-μL aliquots, were diluted 10-fold in Mueller Hinton broth (MHB) and a 100-μL sample of each was added to the first well of a 96-well plate. A 50-μL sample of the first well was then serially diluted two-fold through 50-μL NMB medium in wells 2-11. A bacterial culture was prepared from a frozen (−80° C.) stock in the organism's respective growth medium and grown overnight. The culture was then diluted in MHB until the turbidity matched that of McFarland standard 0.5 by measuring the optical density at 600 nm (1×10^8 cfu/mL). Then, the culture was diluted 1:100 and a 50-μL aliquot was added to wells 1-11, resulting in 2-fold dilutions of antibiotic from 64 μg/mL down to 0.0625 μg/mL and a final inoculum of 5×10^5 cfu/mL. A 100-μL aliquot of MHB medium was added to well 12 as a sterility control, and a row containing no antibiotic was used as a growth control. The plate was incubated at the organism's respective growth temperature overnight or 72 h (S. himastatinicus). The MIC was determined by observing the well density by eye and, with the exception of S. himastatinicus which grows in solid colonies in media, was confirmed by measuring the optical density of each well at 600 nm. At least two assays were conducted for each organism on identical lots of compound. No degradation of compound stocks in dimethylsulfoxide was observed by LC-MS analysis after being subjected to multiple freeze-thaw cycles.

[2] = system: Methicillin-Resistant Staphylococcus aureus; format: cell-based
Procedure: as §1, §2, §3

[3] = system: Streptomyces himastatinicus (ATCC 53653); format: cell-based
Procedure: as §1, §2, §3

[4] = system: Vancomycin-Resistant Enterococcus faecalis (V583); format: cell-based
Procedure: as §1, §2, §3

[5] = system: Methicillin-Sensitive S. aureus (Newman); format: cell-based, Staphylococcus aureus
Procedure: as §1, §2, §3

[6] = system: Vancomycin-Sensitive E. faecalis (T7); format: cell-based, Enterococcus faecalis
Procedure: as §1, §2, §3

Gram-positive bacteria = format: cell-based; conditions: for antibiotic activity (in words): relative to (−)-himastatin (1) where a derivative
Procedure: as §1, §2, §3

[7] = early investigation (ref. vii); cited from earlier work

Structure (SMILES): CC(C)C[C@H]1NC(=O)[C@@H]2C[C@H](O)CNN2C(=O)[C@@H](C(C)C)OC(=O)[C@H](C(C)C)NC(=O)[C@H]2C[C@]3(O)c4cc(-c5ccc6c(c5)[C@@]5(O)C[C@@H]7C(=O)N[C@@H](C(C)C)C(=O)O[C@H](C(C)C)C(=O)N8NC[C@@H](O)C[C@H]8C(=O)N[C@H](CC(C)C)C(=O)N[C@@H]([C@@H](C)O)C(=O)N7[C@H]5N6)ccc4N[C@@H]3N2C(=O)[C@H]([C@@H](C)O)NC1=O [(+)-1, Ent-Himastatin]
- membrane morphology (FM 4-64) (B. subtilis (ATCC 6633); listed as (+)-ent-himastatin): identical
- membrane morphology (FM 4-64) (B. subtilis (ATCC 6633); listed as ent-(+)-himastatin): visual membrane defects
- MIC (μg/mL) B. subtilis ([1]; broth microdilution, Bacillus subtilis (ATCC 6633), growth inhibition determined by eye, n ≥ 2): 0.5 µg/mL (≈ 0.337 µM)
- MIC (μg/mL) MRSA ([2]; broth microdilution, Methicillin-Resistant Staphylococcus aureus, n ≥ 2): 4 µg/mL (≈ 2.69 µM)
- activity against the producing organism Streptomyces himastatinicus (in words) [3]: completely evade its own resistance mechanism and inhibit its growth
- MIC (μg/mL) S. himastatinicus ([3]; broth microdilution, Streptomyces himastatinicus (ATCC 53653), 72 h, n ≥ 2): 0.5 µg/mL (≈ 0.337 µM)
- fold more active in inhibiting the growth of Streptomyces himastatinicus compared to (−)-himastatin (1) ([3]; relative to (−)-himastatin (1)): 4-8 fold
- MIC (μg/mL) VRE faecalis ([4]; broth microdilution, Vancomycin-Resistant Enterococcus faecalis (V583), n ≥ 2): 2 µg/mL (≈ 1.35 µM)
- MIC (μg/mL) MSSA ([5]; broth microdilution, Methicillin-Sensitive S. aureus (Newman), n ≥ 2): 2 µg/mL (≈ 1.35 µM)
- MIC (μg/mL) VSE faecalis ([6]; broth microdilution, Vancomycin-Sensitive E. faecalis (T7), n ≥ 2): 1 µg/mL (≈ 0.673 µM)

Structure (SMILES): CC(C)C[C@@H]1NC(=O)[C@H]2C[C@@H](O)CNN2C(=O)[C@H](C(C)C)OC(=O)[C@@H](C(C)C)NC(=O)[C@@H]2C[C@@]3(O)c4cc(-c5ccc6c(c5)[C@]5(O)C[C@H]7C(=O)N[C@H](C(C)C)C(=O)O[C@@H](C(C)C)C(=O)N8NC[C@H](O)C[C@@H]8C(=O)N[C@@H](CC(C)C)C(=O)N[C@H]([C@H](C)O)C(=O)N7[C@@H]5N6)ccc4N[C@H]3N2C(=O)[C@@H]([C@H](C)O)NC1=O [(−)-1, (−)-Himastatin, reference compound]
- membrane morphology (FM 4-64) (B. subtilis (ATCC 6633)): visual membrane defects
- MIC in Bacillus subtilis ([1]; text and figure legend): 1 µg/mL (≈ 0.673 µM)
- MIC values (Gram-positive bacteria): 1 to 2 µg/mL
- antibiotic activity (in words) (Gram-positive bacteria): potent antibiotic activity
- antibiotic activity in the presence of sodium salts of phospholipids and fatty acids [7]: reduced

Structure (SMILES): CC(C)[C@@H]1OC(=O)[C@@H](C(C)C)NC(=O)[C@@H]2C[C@@]3(O)c4cc(-c5ccc6c(c5)[C@]5(O)C[C@H]7C(=O)N[C@H](C(C)C)C(=O)O[C@@H](C(C)C)C(=O)N8NC[C@H](O)C[C@@H]8C(=O)N[C@@H](CCCCN=[N+]=[N-])C(=O)N[C@H]([C@H](C)O)C(=O)N7[C@@H]5N6)ccc4N[C@H]3N2C(=O)[C@@H]([C@H](C)O)NC(=O)[C@H](CCCCN=[N+]=[N-])NC(=O)[C@H]2C[C@@H](O)CNN2C1=O [(−)-32, Himastatin ε-Azidolysine Derivative]
- MIC (μg/mL) B. subtilis ([1]; ATCC 6633): 2 µg/mL (≈ 1.28 µM)
- MIC (μg/mL) MRSA ([2]; Methicillin-Resistant): 2 µg/mL (≈ 1.28 µM)
- antibiotic activity (in words) (Gram-positive bacteria): essentially no impact on the antibiotic activity
- MIC (μg/mL) S. himastatinicus ([3]; ATCC 53653, 72 h): 8 µg/mL (≈ 5.1 µM)
- MIC (μg/mL) VRE faecalis ([4]; Vancomycin-Resistant (V583)): 1 µg/mL (≈ 0.638 µM)
- MIC (μg/mL) MSSA ([5]; Newman): 1 µg/mL (≈ 0.638 µM)
- MIC (μg/mL) VSE faecalis ([6]; Vancomycin-Sensitive (T7)): 0.5 µg/mL (≈ 0.319 µM)

— patent publication US12030888B2, “Himastatin derivatives, and processes of preparation thereof, and uses thereof” (priority 2021, dated 2024)
